The sequences below were run against T1, TLR8 (Homo sapiens, UniProt Q9NR97) (assay: HEK-TLR8 NF-κB-luciferase reporter, R848 or Motolimod stimulation (potentiation or inhibition)). Conditions: ASO 100 nM; relative to R848 only.
T1 sequence (Q9NR97 27-1041): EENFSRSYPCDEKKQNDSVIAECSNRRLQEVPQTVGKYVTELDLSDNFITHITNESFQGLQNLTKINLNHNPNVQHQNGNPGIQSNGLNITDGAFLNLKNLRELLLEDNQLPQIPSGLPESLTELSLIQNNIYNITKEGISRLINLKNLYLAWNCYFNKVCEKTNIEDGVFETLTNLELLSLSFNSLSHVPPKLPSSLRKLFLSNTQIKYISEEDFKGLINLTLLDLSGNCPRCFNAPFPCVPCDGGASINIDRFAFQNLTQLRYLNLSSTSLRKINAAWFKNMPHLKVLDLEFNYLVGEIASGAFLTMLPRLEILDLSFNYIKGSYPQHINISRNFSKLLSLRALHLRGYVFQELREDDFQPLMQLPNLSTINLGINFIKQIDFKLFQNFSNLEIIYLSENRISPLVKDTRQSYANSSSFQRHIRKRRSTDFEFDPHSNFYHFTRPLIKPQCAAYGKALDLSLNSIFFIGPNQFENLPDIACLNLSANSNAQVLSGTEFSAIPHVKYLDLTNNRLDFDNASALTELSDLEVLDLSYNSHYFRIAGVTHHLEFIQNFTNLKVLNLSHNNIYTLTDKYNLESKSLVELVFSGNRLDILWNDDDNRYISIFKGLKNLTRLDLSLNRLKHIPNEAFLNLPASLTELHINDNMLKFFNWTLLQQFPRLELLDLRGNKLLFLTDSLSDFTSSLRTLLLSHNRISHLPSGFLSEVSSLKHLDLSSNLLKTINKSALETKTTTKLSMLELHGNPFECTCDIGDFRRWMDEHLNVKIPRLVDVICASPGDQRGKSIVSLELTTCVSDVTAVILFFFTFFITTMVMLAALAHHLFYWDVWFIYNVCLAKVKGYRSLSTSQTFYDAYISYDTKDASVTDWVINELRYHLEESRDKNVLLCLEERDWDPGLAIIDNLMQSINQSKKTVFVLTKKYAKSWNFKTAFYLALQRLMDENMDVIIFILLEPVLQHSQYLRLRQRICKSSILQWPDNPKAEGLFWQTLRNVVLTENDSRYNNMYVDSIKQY
Format: cell-based
Set-up: expressed in transfected cells; host or cells: 293XLhTLR8 (HEK293)

Sequence	TLR8 100 nM (averaged NF-κB-Luciferase level relative to R848 condition, fold increase)
ATGTGATGGCCTCCCA (antisense; LNA-modified, pattern not given here) [HPRT LNA-335 V1]	0.637
CACTTCGTGGGGTCCT (antisense; LNA-modified, pattern not given here) [HPRT LNA-664 V1]	0.425
CATCCACCACGTCGTC (antisense; LNA-modified, pattern not given here) [EGFR-3266 LNA V1]	0.778
CCAACACTTCGTGGGG (antisense; LNA-modified, pattern not given here) [HPRT LNA-668 V1]	0.535
CCACATCCTGTGGCTC (antisense; LNA-modified, pattern not given here) [CAMSAP1-2906 LNA V1]	0.291
CCACTTGGCAGACCAT (antisense; LNA-modified, pattern not given here) [CTNN2B-1575 LNA V1]	0.684
CCAGCAGGTCAGCAAA (antisense; LNA-modified, pattern not given here) [HPRT LNA-388 KL]	0.412
CCCACTTGGCAGACCA (antisense; LNA-modified, pattern not given here) [CTNN2B-1576 LNA V1]	0.899
CCTCCCATCTCCTTCA (antisense; LNA-modified, pattern not given here) [HPRT LNA-326 V1]	1.469
CCTTGCACGTGGCTTC (antisense; LNA-modified, pattern not given here) [EGFR-1013 LNA V1]	1.315
CGGCCTCGGAAGCTCT (antisense; LNA-modified, pattern not given here) [MB21D1-168 LNA V1]	0.402
CGTATTATAGCCGATT (antisense; LNA-modified, pattern not given here) [NC1 LNA PS 3-10-3]	0.396
CTGCAGCTTCCTTGTC (antisense; LNA-modified, pattern not given here) [CTNN2B-2136 LNA V1]	0.478
CTTCGTGGGGTCCTTT (antisense; LNA-modified, pattern not given here) [HPRT LNA-662 V1]	1.097
CTTGAAGCATCGTATC (antisense; LNA-modified, pattern not given here) [CTNN2B-3648 LNA KL]	0.960
CTTGGCTTCGTGGAGC (antisense; LNA-modified, pattern not given here) [MB21D1-520 LNA V1]	0.458
GAAAGGTTATGCAAGG (antisense; LNA-modified, pattern not given here) [CTNN2B-916 LNA KL]	1.156

Sequence	TLR8 100 nM (averaged NF-κB-Luciferase level relative to R848 condition, fold increase)
GACTATACGCGCAATA (antisense; LNA-modified, pattern not given here) [NC5 LNA PS 3-10-3]	0.777
GAGGTCTTGGCTTCGT (antisense; LNA-modified, pattern not given here) [MB21D1-525 LNA V1]	0.574
GATGGCCTCCCATCTC (antisense; LNA-modified, pattern not given here) [HPRT LNA-331 V1]	0.278
GCACACTTCGTACCCA (antisense; LNA-modified, pattern not given here) [CAMSAP1-4915 LNA V1]	0.319
GCACTTCAGTCTGAGC (antisense; LNA-modified, pattern not given here) [MB21D1-719 LNA KL]	0.495
GGAGGTCTTGGCTTCG (antisense; LNA-modified, pattern not given here) [MB21D1-526 LNA V1]	0.575
GGCACTTTGCCTCCTT (antisense; LNA-modified, pattern not given here) [EGFR-2859 LNA V1]	0.652
GGCTCGGCTTGCCTAC (antisense; LNA-modified, pattern not given here) [CAMSAP1-5594 LNA V1]	0.374
GGTCATTACAATAGCT (antisense; LNA-modified, pattern not given here) [HPRT LNA-475 KL]	0.500
GGTCTTGGCTTCGTGG (antisense; LNA-modified, pattern not given here) [MB21D1-523 LNA V1]	0.616
GTCAAGGGCATATCCT (antisense; LNA-modified, pattern not given here) [HPRT LNA-732 KL]	0.543
GTCCTTGCACGTGGCT (antisense; LNA-modified, pattern not given here) [EGFR-1015 LNA V1]	0.570
GTCTCTGGAGCTTCCT (antisense; LNA-modified, pattern not given here) [CAMSAP1-2456 LNA V1]	0.764
GTCTTCATCGGCCCTG (antisense; LNA-modified, pattern not given here) [CAMSAP1-2113 LNA V1]	0.664
GTGATCTTGACATGCT (antisense; LNA-modified, pattern not given here) [EGFR-2790 LNA KL]	0.583
GTGATGGCCTCCCATC (antisense; LNA-modified, pattern not given here) [HPRT LNA-333 V1]	0.517

Same assay, conditions: ASO 500 nM; relative to R848 only

Sequence	TLR8 500 nM (averaged NF-κB-Luciferase level relative to R848 condition, fold increase)
ATGTGATGGCCTCCCA (antisense; LNA-modified, pattern not given here) [HPRT LNA-335 V1]	1.840
CACTTCGTGGGGTCCT (antisense; LNA-modified, pattern not given here) [HPRT LNA-664 V1]	1.446
CATCCACCACGTCGTC (antisense; LNA-modified, pattern not given here) [EGFR-3266 LNA V1]	2.417
CCAACACTTCGTGGGG (antisense; LNA-modified, pattern not given here) [HPRT LNA-668 V1]	0.835
CCACATCCTGTGGCTC (antisense; LNA-modified, pattern not given here) [CAMSAP1-2906 LNA V1]	0.232
CCACTTGGCAGACCAT (antisense; LNA-modified, pattern not given here) [CTNN2B-1575 LNA V1]	1.213
CCAGCAGGTCAGCAAA (antisense; LNA-modified, pattern not given here) [HPRT LNA-388 KL]	1.499
CCCACTTGGCAGACCA (antisense; LNA-modified, pattern not given here) [CTNN2B-1576 LNA V1]	1.865
CCTCCCATCTCCTTCA (antisense; LNA-modified, pattern not given here) [HPRT LNA-326 V1]	6.759
CCTTGCACGTGGCTTC (antisense; LNA-modified, pattern not given here) [EGFR-1013 LNA V1]	2.414
CGGCCTCGGAAGCTCT (antisense; LNA-modified, pattern not given here) [MB21D1-168 LNA V1]	0.219
CGTATTATAGCCGATT (antisense; LNA-modified, pattern not given here) [NC1 LNA PS 3-10-3]	0.716
CTGCAGCTTCCTTGTC (antisense; LNA-modified, pattern not given here) [CTNN2B-2136 LNA V1]	0.936
CTTCGTGGGGTCCTTT (antisense; LNA-modified, pattern not given here) [HPRT LNA-662 V1]	4.366
CTTGAAGCATCGTATC (antisense; LNA-modified, pattern not given here) [CTNN2B-3648 LNA KL]	3.889
CTTGGCTTCGTGGAGC (antisense; LNA-modified, pattern not given here) [MB21D1-520 LNA V1]	0.594
GAAAGGTTATGCAAGG (antisense; LNA-modified, pattern not given here) [CTNN2B-916 LNA KL]	4.110

Sequence	TLR8 500 nM (averaged NF-κB-Luciferase level relative to R848 condition, fold increase)
GACTATACGCGCAATA (antisense; LNA-modified, pattern not given here) [NC5 LNA PS 3-10-3]	3.376
GAGGTCTTGGCTTCGT (antisense; LNA-modified, pattern not given here) [MB21D1-525 LNA V1]	0.642
GATGGCCTCCCATCTC (antisense; LNA-modified, pattern not given here) [HPRT LNA-331 V1]	0.186
GCACACTTCGTACCCA (antisense; LNA-modified, pattern not given here) [CAMSAP1-4915 LNA V1]	1.091
GCACTTCAGTCTGAGC (antisense; LNA-modified, pattern not given here) [MB21D1-719 LNA KL]	0.864
GGAGGTCTTGGCTTCG (antisense; LNA-modified, pattern not given here) [MB21D1-526 LNA V1]	0.882
GGCACTTTGCCTCCTT (antisense; LNA-modified, pattern not given here) [EGFR-2859 LNA V1]	0.862
GGCTCGGCTTGCCTAC (antisense; LNA-modified, pattern not given here) [CAMSAP1-5594 LNA V1]	0.706
GGTCATTACAATAGCT (antisense; LNA-modified, pattern not given here) [HPRT LNA-475 KL]	1.381
GGTCTTGGCTTCGTGG (antisense; LNA-modified, pattern not given here) [MB21D1-523 LNA V1]	1.386
GTCAAGGGCATATCCT (antisense; LNA-modified, pattern not given here) [HPRT LNA-732 KL]	2.301
GTCCTTGCACGTGGCT (antisense; LNA-modified, pattern not given here) [EGFR-1015 LNA V1]	0.936
GTCTCTGGAGCTTCCT (antisense; LNA-modified, pattern not given here) [CAMSAP1-2456 LNA V1]	2.402
GTCTTCATCGGCCCTG (antisense; LNA-modified, pattern not given here) [CAMSAP1-2113 LNA V1]	2.086
GTGATCTTGACATGCT (antisense; LNA-modified, pattern not given here) [EGFR-2790 LNA KL]	1.806
GTGATGGCCTCCCATC (antisense; LNA-modified, pattern not given here) [HPRT LNA-333 V1]	1.112

Source: patent US20240384268A1, “Oligonucleotides” (Hudson Institute of Medical Research, priority 2021, published 2024)
